Patent US7772252B2, “Heterocyclic substituted carbonyl derivatives and their use as dopamine D3 receptor ligands” (Aventis Pharmaceuticals Inc., priority 2001, dated 2010)

target: T1, cloned human dopamine D3 receptors (Homo sapiens, UniProt P35462); test: [N-Methyl-3H]Spiroperidol binding to cloned human dopamine D3 receptors; details: read-out: D3 Ki
T1 construct: expressed in transfected cells; membrane homogenate
Outline: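 Stably transfected CHO cells expressing cloned human D3 receptor were used as membranes homogenized in 10% DMSO. Ligand was [N-methyl-3H]spiroperidol displacement.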

T1 sequence (P35462 whole entry): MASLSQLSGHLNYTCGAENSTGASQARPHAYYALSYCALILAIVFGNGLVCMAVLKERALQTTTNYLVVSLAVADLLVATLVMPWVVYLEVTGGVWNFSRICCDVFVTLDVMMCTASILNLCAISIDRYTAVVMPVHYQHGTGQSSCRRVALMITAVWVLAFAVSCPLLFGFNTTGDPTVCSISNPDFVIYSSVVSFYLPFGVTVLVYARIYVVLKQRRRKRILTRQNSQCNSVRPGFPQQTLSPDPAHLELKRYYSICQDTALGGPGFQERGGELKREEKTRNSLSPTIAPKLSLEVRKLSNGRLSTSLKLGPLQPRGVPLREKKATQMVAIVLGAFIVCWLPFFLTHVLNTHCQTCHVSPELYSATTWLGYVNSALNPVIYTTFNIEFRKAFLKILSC

Structure (SMILES)	Ki [µM]
O=C(NCCCN1CCCCC1)[C@@H]1C[C@H]1CN1CCC(c2cc3ccccc3s2)CC1 [compound 832714]	0.0124
Cc1ccc2c(c1)c(C1CCN(C[C@@H]3C[C@H]3C(=O)NCCCn3ccnc3)CC1)nn2C [compound 834129]	0.00675
COc1ccc2c(c1)c(N1CCN(C[C@@H]3C[C@H]3C(=O)NCCCn3cnc4ccccc43)CC1)nn2C [A002243383]	0.0251
O=C(NC1CCN(Cc2cc(Cl)ccc2Cl)CC1)C1CC1CN1CCC(c2noc3ccsc23)CC1 (racemic) [compound 832347]	0.00188
O=C(NCCNc1ccccc1)C1CC1CN1CCC(c2noc3ccsc23)CC1 (racemic) [compound 831603]	0.0209
CCC1CCC(NC(=O)C2CC2CN2C3CCC2CC(c2n[nH]c4cc(F)ccc24)C3)CC1 (centres unmarked) [compound 830130]	0.00668

target: T2, cloned human alpha-1A adrenergic receptors (α1a) (Homo sapiens, UniProt P35348); test: [3H]Prazosin binding to cloned human alpha-1A adrenergic receptors expressed in CHO cells; details: read-out: halpha1Ki (nM) h = human
T2 construct: expressed in transfected cells; membranes
T2 sequence (P35348 1-466): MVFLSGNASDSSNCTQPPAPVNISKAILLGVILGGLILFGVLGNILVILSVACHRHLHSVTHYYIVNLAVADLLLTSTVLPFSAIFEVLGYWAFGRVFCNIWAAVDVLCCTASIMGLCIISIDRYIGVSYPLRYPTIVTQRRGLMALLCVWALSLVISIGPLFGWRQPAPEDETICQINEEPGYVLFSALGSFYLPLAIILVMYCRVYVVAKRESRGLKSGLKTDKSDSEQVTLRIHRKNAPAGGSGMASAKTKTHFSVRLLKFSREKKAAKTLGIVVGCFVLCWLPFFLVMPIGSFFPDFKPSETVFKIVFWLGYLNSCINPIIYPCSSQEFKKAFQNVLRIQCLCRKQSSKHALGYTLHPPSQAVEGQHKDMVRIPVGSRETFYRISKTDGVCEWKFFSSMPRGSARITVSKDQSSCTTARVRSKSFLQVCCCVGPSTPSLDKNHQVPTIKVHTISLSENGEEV
From the text: ^3H]Prazosin Binding to Cloned Human Alpha-1A Adrenergic Receptors (α1a) Expressed in Chinese Hamster Ovary Cells (CHO)
• Purpose: This in vitro assay is designed as a screen to identify compounds displaying a affinity for the human α1a adrenoceptor subtype expressed in the membrane fragments of CHO cells. The assay measures the ability of the test compounds to displace [^3H] prazosin from α1a sites. • The identification of multiple vascular α1-addrenoceptors (α1a, α1b, α1d) in vitro has provided impetus to define the role(s) of these subtypes in cardiovascular regulation in vivo (Vargas and Gorman, 1995). […] Prazosin is a potent antagonist of the human α1a-adrenoceptor subtype, which has been cloned and is expressed in the membrane fragments of CHO cells. • hα1a receptor: The cloning of the human α1a cDNA was accomplished first by screening a human prostate cDNA library (Clontech), from which a portion of the coding region was obtained. This DNA fragment was then used to screen a human leukocyte genomic library (Clontech), and the rest of the coding sequence was obtained. Later these two fragments were spliced together. The entire coding sequence was then fully sequenced including matching PCR sequence with original genomic coding sequence, thus ensuring splice sites were joined correctly (Schwinn et al., 1995). Once sequenced, the gene was subcloned into the expression vector pcDNA3 (Invitrogen). Plasmid DNA was then used for transfection into CHO cells and G418 resistant clones were isolated. A clone expressing high levels of the hα1a receptor (as determined by mRNA and receptor binding data) was chosen and pharmacologically characterized. • Culture Media Ingredients for Adherent α1a expressing CHO Culture: • A. HAM's F-12 (Celigro) • B. 10% 0.2 micron filtered Fetal Bovine Serum (FBS)(Celigro) • C. 1% 0.2 micron filtered Penicillin-Streptomycin (Celigro) • D. G418 0.2 micron filtered (Geneticin 400 μg/ml)(Celigro) • Cells are cultured using established methods and procedures in either 150×25 mm culture plates (scale up to 100 plates) or a combination of these plates and 70 roller bottles. One culturing/harvest cycle typically requires 2 weeks and yields between 100-400 mg protein. Plates or bottles are incubated at 37° C.+5% CO2. • Storage: Cells are harvested by mechanical scraping, washed using PBS, collected in 250 ml Corning polypropylene centrifuge tubes, spun down (1500 RPM) and resuspended in dH2O 10% DMSO (final volume per harvest is approximately 50 ml). Protein determination is made using the Biorad DC Assay Kit. Finally, the appropriate volume is aliquoted into a 2 ml Corning Cryovial (10 mg/1-1.5 ml) which is stored at −80° C.
• Assay Requirement: 0.5 cryovials per 96 well plate (assay volume=200 μl/well) • [^3H]-Ligand: [7-methoxy-^3H]-Prazosin: 1.0 nM (NEN, NET-823) • 70-87 Ci/mmol • Materials: Phentolamine mesylate (Research Biochemicals Int. #P-131) • 96 well flat bottom plates (Beckman) • Unifilter GF/B Plate (Packard) • Polyethylenimine (Sigma #P-3134) • TomTec or Packard Filtermate 196 Cell Harvesters • Packard TopCount Scintillation Counter • Buffers: A: 50 mM Tris HCl; 0.1% ascorbate, pH 7.7 (incubation buffer) • B: 50 mM Tris HCl; pH 7.7 (wash buffer) • Procedure: Assay additions are as follows (in the order indicated): • Total Binding=50 μl buffer A+50 μl [^3H]prazosin+100 μl membrane • Nonsp. Bd.=50 μl 10 μM phentolamine+50 μl [^3H]prazosin+100 μl membrane • Test Cpd.=50 μl compound+50 μl [^3H]prazosin+100 μl membrane • Compounds to be evaluated are weighed out to yield a 10 mM stock solution in DMSO in a 24 well polystyrene plate. This is diluted to a 0.5 mM stock in dH2O, Serial dilutions in Buffer A are made from which 50 μl additions to the plate are made in duplicate in order to achieve the final concentrations desired. Typically, one 96 well plate is used to evaluate 11 compounds at 4 concentrations (10^−6-10^−9 M) in duplicate. Total binding and nonspecific binding are determined in quadruplicate. […]

Structure (SMILES)	Ki [nM]
CN(C)C1CCN(C(=O)CCCN2CCN(c3csc4cc(F)ccc34)CC2)C1 (centres unmarked) [compound 826863]	32.2
CC1(C)CCCN(C(=O)CCCN2CCN(c3csc4cc(F)ccc34)CC2)C1 (racemic) [compound 826857]	9.82
